{"source": "patent US20090203776A1", "about": "“METHODS OF USING MENTHOL PROPYLENEGLYCOL-CARBONATE AND ANALOGS THEREOF FOR PRODUCING ANTI-INFLAMMATORY AND ANTI-ANGIOGENIC EFFECTS” (priority 2004, published 2009)", "key": {"[1]": {"system": "TPA-induced inflammatory response (mouse ear edema)", "assay": "TPA-induced mouse ear edema, topical application", "format": "in vivo, mice", "details": "for anti-inflammatory effect (in words): TPA-induced inflammatory response, topical; for Anti-inflammatory Effect (% of control): reduction in ear thickness vs control group", "procedure": "Edema was induced in mice by topical application of 10 μl of TPA (Tetradecnoylphorbol acetate) in acetone (2.5 μg/ear) to both the inner and outer surface of one ear of each mouse used in the experiment. Each test compound, diluted with acetone to a concentration of 10% was applied topically to the inflamed mouse ear immediately after TPA application, so as to deliver 2.5 mg/ear. The reference drug, indomethacin (0.5 mg/ear), was administered as a positive control. The thickness of each ear was measured before treatment and 4 hours after induction of inflammation, using a micrometer (Mitutoyo Co.). Anti-inflammatory effect was expressed as the reduction in ear thickness with respect to the control group."}, "[2]": {"system": "aortic rings (angiogenic sprouting / microvessel formation)", "assay": "ex vivo rat aortic ring angiogenesis assay", "format": "cell-based, Sprague Dawley rats", "details": "for % Inhibition (microvessel density) / Microvessel Density (pixel^2): day 10; for Microvessel Density (pixel^2): 5 aortic rings, ECGS as inducer; for anti-angiogenic effect (in words): rat aortic ring assay, 1, 10, and 100 μM", "description": "The effect of racemic menthol propyleneglycol-carbonate on angiogenesis was studied by culturing aortic explants in three-dimensional matrix gels according to the procedure of Kruger and Figg (Kruger E. A. and Figg, W. D. Protein Binding Alters the Activity of Suramin, Carboxyamidotriazole, and UCN-01 in an ex Vivo Rat Aortic Ring Angiogenesis Assay Clinical Cancer Research 7:1867-1872, 2001). Thoracic aortas were excised from 8-week-old mail Sprague Dawley rats and the fibroadipose tissue was removed. The aortas were sectioned into 1-mm-long cross-sections, rinsed with Human Endothelial-SFM (GIBCO), placed on the Matrigel-coated wells, covered with additional 50 μl Matrigel, and allowed to gel for more than 30 min at 37° C., 5% CO2. All the rings were cultured in Human Endothelial-SFM (GIBCO) supplemented with […] of ECGS (Endothelial Cell Growth Supplement, Sigma) as an angiogenesis inducer. Racemic menthol propylene-carbonate diluted with enthanol was added to the culture medium at final concentrations of 1, 10, and 100 μM. Ethanol alone (1%) was added to the culture medium as a vehicle control. All assays were performed by using 5 aortic rings per sample. Aortic rings were photographed on day 10. The area of angiogenic sprouting was calculated using Image-Pro Plus software (Media Cybernetics). Microvessel densities are reported in square pixels."}, "[3]": {"system": "Ha-CaT cells", "assay": "cell cytotoxicity assay, XTT", "format": "cell-based", "details": "for Cell Viability (%): 48 hours, Ha-CaT", "procedure": "5×10^3 Ha-CaT cells were plated in each well of 96 well plates and racemic menthol propyleneglycol-carbonate was added at various concentrations. The plates were incubated for another 48 hours and the viable cells were measured by XTT Cell Proliferation Kit (Roche). More than 70% of Ha-CaT cells were viable even at high concentration of 100 μM."}, "[4]": {"system": "HUVE (Human Umbilical Vein Endothelial) cells", "assay": "HUVE cell proliferation in the presence of bFGF, XTT", "format": "cell-based", "details": "48 hours; for Proliferation (%): bFGF only = 100, no bFGF = 0; for Average (relative cell number, XTT): with bFGF", "procedure": "HUVE (Human Umbilical Vein Endothelial) cells were isolated from human umbilical cord veins by a method of Jaffe et al. (Jaffe, E. A., Nachman, R. L., Becker, C. G., and Minick, C. R. Culture of Human endothelial cells derived from umbilical veins. J. Clin. Invest. 52: 2745-2756, 1973). HUVE cells were confirmed by immunostaining with antibody against factor VIII. The cells were grown in M199 medium (Gibco BRL, Grand Island, N.Y.) supplemented with 10% fetal bovine serum, 100 units/mL penicillin, 100 μg/mL streptomycin, 50 μg/mL endothelial cell growth supplement, and 5 units/mL heparin at 37° C. in an atmosphere of 5% CO2-95% air.\n1×10^4 HUVE cells were plated in each well of 96 well plates and five different concentrations ranging from 1 to 100 of racemic menthol propyleneglycol-carbonate were tested in the presence of bFGF used as maximum proliferation control. Cells were cultured for an additional 48 hours, and relative cell numbers in each well were determined by XTT Cell Proliferation Kit (Roche)."}, "[5]": {"details": "2.5 mg/ear topical (10% in acetone), 4 hours after TPA 2.5 μg/ear"}}, "data": [{"compound": "C=C(C)C1CCC(C)CC1OC(=O)OCC(C)O", "note": "(centres unmarked) [isopulegol propyleneglycol-carbonate]", "values": [{"measurement": "anti-inflammatory effect (in words)", "setting": "[1]", "result": "Satisfactory anti-inflammatory effects"}, {"measurement": "Anti-inflammatory Effect (% of control)", "setting": "[1]; [5]", "result": "33 % of control"}]}, {"compound": "CC1CCC(C(C)C)C(O)C1", "note": "(centres unmarked) [(l)-Menthol, reference compound]", "values": [{"measurement": "anti-inflammatory effect (in words)", "setting": "[1]", "result": "no appreciable anti-inflammatory effect"}, {"measurement": "Anti-inflammatory Effect (% of control)", "setting": "[1]; [5]", "result": "0 % of control"}]}, {"compound": "COc1ccc2c(c1)c(CC(=O)O)c(C)n2C(=O)c1ccc(Cl)cc1", "note": "[Indomethacin, reference compound]", "values": [{"measurement": "Anti-inflammatory Effect (% of control)", "setting": "[1]; positive control, 0.5 mg/ear, 4 hours after TPA", "result": "96 % of control"}]}, {"compound": "CC1CCC(C(C)C)C(OC(=O)OCCCCCCCCCO)C1", "note": "(centres unmarked) [menthyl-9-hydroxynonyl-carbonate]", "values": [{"measurement": "anti-inflammatory effect (in words)", "setting": "[1]", "result": "Satisfactory anti-inflammatory effects"}, {"measurement": "Anti-inflammatory Effect (% of control)", "setting": "[1]; [5]", "result": "45 % of control"}]}, {"compound": "CC(O)COC(=O)OC1CC(C)CCC1C(C)C", "note": "(racemic) [racemic menthol propyleneglycol-carbonate]", "values": [{"measurement": "anti-inflammatory effect (in words)", "setting": "[1]", "result": "Satisfactory anti-inflammatory effects"}, {"measurement": "Anti-inflammatory Effect (% of control)", "setting": "[1]; [5]", "result": "23 % of control"}, {"measurement": "% Inhibition (microvessel density)", "setting": "[2]; 1 uM", "result": 15, "unit": "%"}, {"measurement": "Microvessel Density (pixel^2)", "setting": "[2]; 1 uM", "result": "13.4 ± 4.1", "unit": "pixel^2"}, {"measurement": "% Inhibition (microvessel density)", "setting": "[2]; 10 uM", "result": 22, "unit": "%"}, {"measurement": "Microvessel Density (pixel^2)", "setting": "[2]; 10 uM", "result": "12.2 ± 2.5", "unit": "pixel^2"}, {"measurement": "% Inhibition (microvessel density)", "setting": "[2]; 100 uM", "result": 33, "unit": "%"}, {"measurement": "Microvessel Density (pixel^2)", "setting": "[2]; 100 uM", "result": "10.6 ± 3.8", "unit": "pixel^2"}, {"measurement": "anti-angiogenic effect (in words)", "setting": "[2]", "result": "Satisfactory anti-angiogenic effect"}, {"measurement": "anti-angiogenic effect (in words)", "setting": "[2]; listed as racemic menthol propylene-carbonate", "result": "inhibited microvessel formation in rat aortic ring assay in a dose dependent manner"}, {"measurement": "Cell Viability (%)", "setting": "[3]; 0.1 uM", "result": 100, "unit": "%"}, {"measurement": "Cell Viability (%)", "setting": "[3]; 1.0 uM", "result": 100, "unit": "%"}, {"measurement": "Cell Viability (%)", "setting": "[3]; 5.0 uM", "result": 96.5, "unit": "%"}, {"measurement": "Cell Viability (%)", "setting": "[3]; 10.0 uM", "result": 96.3, "unit": "%"}, {"measurement": "Cell Viability (%)", "setting": "[3]; 50.0 uM", "result": 81.8, "unit": "%"}, {"measurement": "cytotoxic effect on normal cells (in words)", "setting": "[3]; Ha-CaT cells, up to 100 μM", "result": "non-toxic against normal cells"}, {"measurement": "Proliferation (%)", "setting": "[4]; 1 μM", "result": 97.6, "unit": "%"}, {"measurement": "Average (relative cell number, XTT)", "setting": "[4]; 1 μM", "result": 1.0623}, {"measurement": "Proliferation (%)", "setting": "[4]; 5 μM", "result": 93.9, "unit": "%"}, {"measurement": "Average (relative cell number, XTT)", "setting": "[4]; 5 μM", "result": 1.0305}, {"measurement": "Proliferation (%)", "setting": "[4]; 10 μM", "result": 95.3, "unit": "%"}, {"measurement": "Average (relative cell number, XTT)", "setting": "[4]; 10 μM", "result": 1.0425}, {"measurement": "Proliferation (%)", "setting": "[4]; 50 μM", "result": 97.6, "unit": "%"}, {"measurement": "Average (relative cell number, XTT)", "setting": "[4]; 50 μM", "result": 1.0621}, {"measurement": "Proliferation (%)", "setting": "[4]; 100 μM", "result": 80.0, "unit": "%"}, {"measurement": "Average (relative cell number, XTT)", "setting": "[4]; 100 μM", "result": 0.9121}]}, {"compound": "CC1CCC(C(C)C)C(OCC(O)CO)C1", "note": "(centres unmarked) [menthoxy-propane-1,2-diol]", "values": [{"measurement": "anti-inflammatory effect (in words)", "setting": "[1]", "result": "Satisfactory anti-inflammatory effects"}, {"measurement": "Anti-inflammatory Effect (% of control)", "setting": "[1]; [5]", "result": "27 % of control"}]}]}
